These are literature values, as cited in PMC6381106 (Scientific Reports, 2019).

The test system of the data set is TLR4. The conditions noted are these: literature; ref [62]–[65]; cited from earlier work. The text has this: Multiple anti-inflammatory immunomodulatory therapies have been developed to ameliorate proinflammation following bacterial infection. […] Therefore, novel therapeutic approaches that decrease inflammatory responses should be developed, and researchers should expand the focus beyond agents that only treat the initial infe ...

On to `CCOC(=O)C1=CCCC[C@H]1S(=O)(=O)Nc1ccc(F)cc1Cl` [TAK-242], for which the “outcome in clinical trials (TLR4 inhibitor; in words)” value was “unsuccessful in clinical trials”.
